# Experimental data as given in article PMC4226571, “The E6AP Binding Pocket of the HPV16 E6 Oncoprotein Provides a Docking Site for a Small Inhibitory Peptide Unrelated to E6AP, Indicating Druggability of E6” (PLoS ONE, 2014).
# Entries after “also recorded” stand apart in the source; their conditions may differ.
# Assays:
# [1] = system: wt HPV16 E6; assay: Mammalian two-hybrid assay, wt HPV16 E6; format: cell-based; conditions: HeLa; peptide-GAL4-BD + wt HPV16 E6-VP16-AD; relative to pACT control = 1.0; three experiments in duplicate
# Text: Results were obtained from three individual experiments, each performed in duplicates. Standard deviations are indicated. Asterisks above horizontal lines indicate statistically significant differences from pACT-transfected cells, with p-values of ≤0.001 (***). […] The horizontal line indicates 1.5-fold inhibition. Individual amino acid exchanges are indicated below each column. Error bars indicate standard deviation values. (D) Statistical analysis of the differential binding behaviour of HPV16 E6 mutants 16E6R55A and 16E6Y70A. […] Asterisks above the horizontal lines indicate statistically significant reductions of luciferase activities, with p-values of ≤0.01 (**) or ≤0.001 (***). Error bars indicate standard deviation values.
# HeLa (HPV18-positive) and MRI-H-186 (HPV16-positive) cervical carcinoma cells, and H1299 lung cancer cells were grown in DMEM (pH 7.2), supplemented with 10% fetal bovine serum (Gibco Life Technologies, Carlsbad, CA, USA), 2 mM L-glutamine, 100 U/ml penicillin and 100 µg/ml streptomycin (Sigma-Aldrich, Saint Lois, MO). Plasmids were transfected by calcium phosphate co-precipitation as described. […] E6 constructs used in Figure 7C contain an additional flag-tag between E6 and the VP16-AD. Mutant derivatives of HPV16, HPV18 and HPV31 E6, as specified in the text, were generated by site directed mutagenesis and verified by DNA sequencing. […]
# [2] = system: HPV16 E6; conditions: ref [17]; cited from earlier work
# Text: In previous work, we therefore followed an alternative strategy to screen for E6 inhibitors. […] In order to identify possible structural determinants for this discrepancy, we compared the amino acid sequences of the contact region in HPV16 E6 with the corresponding domain of HPV18 E6.
sequence,measurement,setting,value
KEKEEYNSNSSSIASIGLI [pep11**m],increase of luciferase activity (intracellular E6/peptide binding),[1],did not stimulate luciferase activities; also recorded: does not bind to HPV16 E6
same,binding to HPV16 E6 (in words),[2],defective for E6 binding
